Here are results for 42 compounds from US7157453B2, “Urea substituted imidazoquinolines” (3M Innovation Properties Company, priority 1999, dated 2007).

Each structure is given as a SMILES string. Where a name gives a salt, the structure may show the parent alone.

Assay [1] relates to interferon (α). Nature of the assay: Cytokine Induction in Human Cells: interferon (α) by ELISA. Particulars: PBMC; human PBMCs, incubated 18 to 24 hours, lowest concentration found to induce interferon. It counts as cell-based. From the text:
(§1) An in vitro human blood cell system was used to assess cytokine induction by compounds of the invention. Activity is based on the measurement of interferon and tumor necrosis factor (α) (IFN and TNF, respectively) secreted into culture media as described by Testerman et. al. In “Cytokine Induction by the Immunomodulators Imiquimod and S-27609”, Journal of Leukocyte Biology, 58, 365–372 (September, 1995).
(§2) Whole blood is collected by venipuncture into EDTA vacutainer tubes from healthy human donors. Peripheral blood mononuclear cells (PBMCs) are separated from whole blood by density gradient centrifugation using Histopaque®-1077 (Sigma Chemicals, St. Louis, Mo.). The PBMCs are suspended at 3–4×10^6 cells/mL in RPMI 1640 medium containing 10% fetal bovine serum, 2 mM L-glutamine and 1% penicillin/streptomycin solution (RPMI complete). The PBMC suspension is added to 48 well flat bottom sterile tissue culture plates (Costar, Cambridge, Mass. or Becton Dickinson Labware, Lincoln Park, N.J.) containing an equal volume of RPMI complete media containing test compound.
(§3) The compounds are solubilized in dimethyl sulfoxide (DMSO). The DMSO concentration should not exceed a final concentration of 1% for addition to the culture wells.
(§4) The solution of test compound is added at 60 μM to the first well containing RPMI complete and serial (three fold or ten fold) dilutions are made. The PBMC suspension is then added to the wells in an equal volume, bringing the test compound concentrations to the desired range. The final concentration of PBMC suspension is 1.5–2×10^6 cells/mL. The plates are covered with sterile plastic lids, mixed gently and then incubated for 18 to 24 hours at 37° C. in a 5% carbon dioxide atmosphere.
(§5) Following incubation the plates are centrifuged for 5–10 minutes at 1000 rpm (˜200×g) at 4° C. The cell culture supernatant is removed with a sterile polypropylene pipet and transferred to sterile polypropylene tubes. Samples are maintained at −30 to −70° C. until analysis. The samples are analyzed for interferon (α) and tumor necrosis factor (α) by ELISA
Interferon (α) concentration is determined by ELISA using a Human Multi-Species kit from PBL Biomedical Laboratories, New Brunswick, N.J.
(§6) The table below lists the lowest concentration found to induce interferon and the lowest concentration found to induce tumor necrosis factor for each compound.

Assay [2] relates to tumor necrosis factor (α). Nature of the assay: Cytokine Induction in Human Cells: tumor necrosis factor (α) by ELISA. Type of assay: cell-based. Particulars: PBMC; human PBMCs, incubated 18 to 24 hours, lowest concentration found to induce tumor necrosis factor.
Description: as §1, §2, §3, §4, §5
Tumor necrosis factor (α) (TNF) concentration is determined using ELISA kits available from Genzyme, Cambridge, Mass.; R&D Systems, Minneapolis, Minn.; or Pharmingen, San Diego, Calif.
as §6
For orientation: ELISA stands for enzyme-linked immunosorbent assay.

Broadly, the minimal effective concentration is the lowest level tested that produced the effect sought. High values mean weaker potency, low ones greater potency. As for `Nc1nc2ccccc2c2c1ncn2CCCCNC(=O)Nc1ccccc1C(F)(F)F` [Example 46], the minimal effective concentration in assay [1] was 1.11 µM; in assay [2] it was 3.33 µM.

For `CCCCc1nc2c(N)nc3ccccc3c2n1CCCCNC(=O)Nc1ccccc1Cl` [Example 86], the minimal effective concentration in assay [1] is 0.1 µM; in assay [2], 1 µM.

As for `COC(=O)c1ccccc1NC(=O)NCCCCn1cnc2c(N)nc3ccccc3c21` [Example 43], the minimal effective concentration in assay [1] and in assay [2] was > 30 µM throughout.

Take `Nc1nc2ccccc2c2c1ncn2CCCCNC(=O)Nc1ccccc1` [Example 16]: the minimal effective concentration in assay [1] was 1.11 µM; in assay [2], 10 µM.

As to `CCCCc1nc2c(N)nc3c(c2n1CCCCNC(=O)NC12CC4CC(CC(C4)C1)C2)CCCC3` [Example 132], the minimal effective concentration in assay [1] came to 0.01 µM; in assay [2], 1 µM.

`COCCc1nc2c(N)nc3ccccc3c2n1CCCCNC(=O)Nc1c(Cl)cccc1Cl` [Example 118]: the minimal effective concentration in assay [1] and in assay [2] was 10 µM each time.

On to `Nc1nc2ccccc2c2c1ncn2CCCCNC(=O)NC1CCCCC1` [Example 39], for which the values for the minimal effective concentration in assay [1] and in assay [2] were 1.11 µM and 10 µM, respectively.

In the case of `COCCc1nc2c(N)nc3ccccc3c2n1CCCCNC(=O)NC(=O)c1ccccc1` [Example 141, N^1-{4-[4-Amino-2-(2-methoxyethyl)-1H-imidazo[4,5-c]quinolin-1-yl]butyl}-N^3-benzoylurea Trifluoroacetate], the minimal effective concentration in assay [1] was > 10 µM; in assay [2], 10 µM.

In the case of `COCCc1nc2c(N)nc3ccccc3c2n1CCCCCCCCNC(=O)Nc1ccccc1` [Example 145, N-{8-[4-amino-2-(2-methoxyethyl)-1H-imidazo[4,5-c]quinolin-1-yl]octyl}-N′-phenylurea], the results for the minimal effective concentration in assay [1] and in assay [2] were 0.01 µM and 0.04 µM, respectively.

For the compound `CCCCNC(=O)NCCCCn1c(CCOC)nc2c(N)nc3ccccc3c21` [Example 103], the minimal effective concentration in assay [1] is 0.0001 µM; in assay [2], 0.1 µM.

As to `CCCCc1nc2c(N)nc3ccccc3c2n1CCCCNC(=O)N[C@@H](C)c1ccccc1` [Example 82], the figures for the minimal effective concentration in assay [1] and in assay [2] were 0.01 µM and 0.1 µM, respectively.

`CCCCc1nc2c(N)nc3ccccc3c2n1CCCCNC(=O)NCCC` [Example 71]: the minimal effective concentration in assay [1] was 0.001 µM; in assay [2], 1 µM.

Take `COCCc1nc2c(N)nc3ccccc3c2n1CCCCNC(=O)Nc1ccccc1Cl` [Example 112]: the minimal effective concentration in assay [1] came to 0.0001 µM; in assay [2], 0.1 µM.

For the compound `CCCCOc1ccc(NC(=O)NCCCCn2cnc3c(N)nc4ccccc4c32)cc1` [Example 21], the minimal effective concentration in assay [1] and in assay [2] was > 30 µM throughout.

For the compound `COCCc1nc2c(N)nc3ccccc3c2n1CCCCNC(=O)Nc1ccccc1` [Example 104], the values for the minimal effective concentration in assay [1] and in assay [2] were 0.0001 µM and 1 µM, respectively.

`COCCc1nc2c(N)nc3ccccc3c2n1CCCCNC(=O)Nc1ccc(C(F)(F)F)cc1` [Example 117]: the minimal effective concentration in assay [1] and in assay [2] was 10 µM in each case.

Regarding `CCCCc1nc2c(N)nc3ccccc3c2n1CCCCNC(=O)NCc1ccc(OC)cc1` [Example 89], the minimal effective concentration in assay [1] worked out at 0.1 µM; in assay [2], 10 µM.

As to `COCCc1nc2c(N)nc3ccccc3c2n1CCCCNC(=O)N[C@@H](C)c1ccccc1` [Example 111], the minimal effective concentration was found to be 0.001 µM in assay [1] and 1 µM in assay [2].

Turning to `Nc1nc2ccccc2c2c1ncn2CCCCNC(=O)Nc1ccc([N+](=O)[O-])cc1` [Example 17], the minimal effective concentration in assay [1] was > 30 µM; in assay [2] it was 30 µM.

In the case of `CCNC(=O)NCCCCn1c(CCOC)nc2c(N)nc3ccccc3c21` [Example 101], the minimal effective concentration turned out to be 0.01 µM in assay [1] and 1 µM in assay [2].

Turning to `COCCc1nc2c(N)nc3ccccc3c2n1CCCCNC(=O)Nc1ccc(C#N)cc1` [Example 109], the minimal effective concentration in assay [1] was 0.0001 µM; in assay [2], 0.1 µM.

In the case of `Nc1nc2ccccc2c2c1ncn2CCCCNC(=O)Nc1ccc(Oc2ccccc2)cc1` [Example 33], the minimal effective concentration in assay [1] and in assay [2] was > 30 µM throughout.

Turning to `CCOc1ccccc1NC(=O)NCCCCn1cnc2c(N)nc3ccccc3c21` [Example 44], the minimal effective concentration in assay [1] was 1.11 µM; in assay [2] it was 10 µM.

Take `Nc1nc2ccccc2c2c1ncn2CCCCNC(=O)Nc1ccccc1[N+](=O)[O-]` [Example 41]: the minimal effective concentration was determined as 1.11 µM in assay [1] and 10 µM in assay [2].

`Nc1nc2ccccc2c2c1ncn2CCCCNC(=O)OCC1c2ccccc2-c2ccccc21` [Example 4, 9H-9-Fluorenylmethyl N-[4-(4-amino-1H-imidazo[4,5-c]quinolin-1-yl)butyl]carbamate]: the minimal effective concentration in assay [1] and in assay [2] was > 30 µM throughout.

In the case of `CCCCc1nc2c(N)nc3ccccc3c2n1CCNC(=O)Nc1ccc(Oc2ccccc2)cc1` [Example 54], the results for the minimal effective concentration in assay [1] and in assay [2] were > 10 µM and 10 µM, respectively.

In the case of `COCCc1nc2c(N)nc3c(c2n1CCCCNC(=O)N(C)C)CCCC3` [Example 134], the values for the minimal effective concentration in assay [1] and in assay [2] were 0.001 µM and 1 µM, respectively.

Consider `COc1ccc(NC(=O)NCCCCn2cnc3c(N)nc4ccccc4c32)cc1` [Example 37], for which the minimal effective concentration in assay [1] was determined as 1.11 µM; in assay [2] it was 10 µM.

Take `CC(C)c1ccc(NC(=O)NCCCCn2cnc3c(N)nc4ccccc4c32)cc1` [Example 27]: the minimal effective concentration in assay [1] and in assay [2] was > 30 µM each time.

In the case of `COCCc1nc2c(N)nc3ccccc3c2n1CCCCNC(=O)Nc1cccc([N+](=O)[O-])c1` [Example 114], the minimal effective concentration amounted to 0.0001 µM in assay [1] and 0.01 µM in assay [2].

In the case of `CSc1ccc(NC(=O)NCCCCn2cnc3c(N)nc4ccccc4c32)cc1` [Example 47], the minimal effective concentration was found to be 3.33 µM in assay [1] and 10 µM in assay [2].

On to `Nc1nc2ccccc2c2c1ncn2CCCCNC(=O)NCCc1ccccc1` [Example 36], for which the minimal effective concentration in assay [1] is 1.11 µM; in assay [2] it was 10 µM.

`Nc1nc2ccccc2c2c1ncn2CCCCNC(=O)Nc1ccc(Br)cc1` [Example 42]: the minimal effective concentration in assay [1] and in assay [2] was > 30 µM each time.

On to `COCCc1nc2c(N)nc3ccccc3c2n1CCCCNC(=O)Nc1cccc(C)c1` [Example 106], for which the minimal effective concentration is 0.0001 µM in assay [1] and 1 µM in assay [2].

On to `CCCNC(=S)NCCCCn1c(CCOC)nc2c(N)nc3ccccc3c21` [Example 127], for which the minimal effective concentration in assay [1] was determined as 0.0001 µM; in assay [2], 1 µM.

On to `CC(C)(C)NC(=O)NCCCCn1cnc2c(N)nc3ccccc3c21` [Example 20], for which the figures for the minimal effective concentration in assay [1] and in assay [2] were 1.11 µM and 30 µM, respectively.

With `CCCCc1nc2c(N)nc3ccccc3c2n1CCCCNC(=O)NCc1ccc(C)cc1` [Example 84], the minimal effective concentration in assay [1] was found to be 0.1 µM; in assay [2] it was 1 µM.

With `CCCCc1nc2c(N)nc3ccccc3c2n1CCCCNC(=O)Nc1ccccc1OC` [Example 85], the minimal effective concentration amounted to 0.001 µM in assay [1] and 0.1 µM in assay [2].

Take `CCCNC(=O)NCCn1c(COCC)nc2c(N)nc3ccccc3c21` [Example 67]: the figures for the minimal effective concentration in assay [1] and in assay [2] were 1 µM and 10 µM, respectively.

Turning to `CCCCc1ccc(NC(=O)NCCCCn2cnc3c(N)nc4ccccc4c32)cc1` [Example 34], the minimal effective concentration in assay [1] and in assay [2] was > 30 µM in each case.

Regarding `CC(=O)c1ccc(NC(=O)NCCCCn2cnc3c(N)nc4ccccc4c32)cc1` [Example 51], the minimal effective concentration in assay [1] and in assay [2] was 30 µM in each case.

With `Nc1nc2ccccc2c2c1ncn2CCCCNC(=O)NCc1ccccc1` [Example 35], the minimal effective concentration in assay [1] is 1.11 µM; in assay [2] it was 10 µM.
